The values that follow come from patent US20260256796A1, “METHOD FOR TREATING FELINE CORONAVIRUS OR CALICIVIRUS INFECTION” (VIGONVITA LIFE SCIENCES CO., LTD., priority 2022, published 2026).

pEC50: −log10 of the molar value.

Data set [1] relates to feline infectious peritonitis virus (FIPV). As to the kind of experiment: Inhibitory activity against feline coronavirus (FIPV) in CRFK cells, CellTiter-Glo readout. In kind it is cell-based. The note with it: for pEC50: Alphacoronavirus 1, FIPV 0.1 MOI/well, 72 h, CellTiter-Glo; for inhibition of replication of FIPV in vitro: summary of Table 1. How it is done: CRFK cells in a good growth state were seeded into a 96-well assay plate. When the cells grew to 80%-90% confluence, feline coronavirus (FIPV) (0.1 MOI/well) and varying concentrations of the test compounds were added to the assay plate. Meanwhile, a cell control (cells, no compound treatment or viral infection) and a virus control (cells infected with virus, no compound treatment) were set. The final concentration of DMSO in the culture solution was 1%. After incubation at 37° C. for 72 h, the cells were treated with a CellTiter-Glo luminescent cell viability assay reagent (Promega, Madison, WI, USA). The half-maximal effective concentration (EC50) values of the compounds for virus inhibition were calculated using the GraphPad prism 7 software.

Data set [2] in a line: Pharmacokinetic evaluation in rats. In kind it is in vivo. The note with it: male, SD; for AUC(0-inf) / AUC(0-t) / Cmax: nucleoside (compound 4) in rat plasma. The protocol:
Male SD rats were fasted before the experiment (except for the intravenous group, which was not fasted), with free access to water, and were fed uniformly 2 h after administration. Compound 4 was administered by intravenous injection at a dose of 2.0 mg/kg (n=3) and administered intragastrically at a dose of 10.0 mg/kg (n=3); compound 53 was administered by intravenous injection at a dose of 5.0 mg/kg (n=3) and administered intragastrically at a dose of 20.0 mg/kg (n=3); the administration vehicle was 5% DMSO+5% ethanol+40% PEG300+50% saline. After the administration, 0.2-mL blood samples were collected via the jugular vein at different time points. Each blood sample was then placed into a heparin sodium anticoagulation tube, gently mixed uniformly, and centrifuged at 2000 g for 10 min. Plasma was isolated and frozen in a refrigerator at −70° C. for later analysis. The concentration of nucleoside (compound 4) in the plasma was determined by the LC-MS-MS method, and pharmacokinetic parameters were calculated.

Usually pEC50 stands for the negative decadic logarithm of the EC50, by convention in mol/L. Low values mean a large EC50, high ones a small EC50. Take `CC(C)C(=O)OC[C@H]1O[C@@](C#N)(c2ccc3c(N)ncnn23)[C@H](O)[C@@H]1O` [Compound 6]: in data set [1], the pEC50 is 6.19 and the “inhibition of replication of FIPV in vitro” value (from here on “inhibition”) was “could inhibit the replication”.
In data set [1], `[2H]c1cc([C@]2(C#N)O[C@H](COC(=O)C(C)C)[C@@H](OC(=O)C(C)C)[C@H]2OC(=O)C(C)C)n2ncnc(N)c12` [Compound 42] showed a pEC50 of 5.79.
For `[2H]c1cc([C@]2(C#N)O[C@H](COC(C)=O)[C@@H](OC(C)=O)[C@H]2OC(C)=O)n2ncnc(N)c12` [Compound 40], the pEC50 in data set [1] was 5.98.
The same measure, in the same setting: with `N#C[C@@]1(c2ccc3c(N)ncnn23)O[C@H](CO)[C@@H](O)[C@H]1O` [GS-441524, reference compound] the figure was 5.64; with `[2H]c1cc([C@]2(C#N)O[C@H](COC(C)=O)[C@@H](O)[C@H]2O)n2ncnc(N)c12` [Compound 52], 5.89.
In turn, `[2H]c1cc([C@]2(C#N)O[C@H](COC(=O)CC)[C@@H](O)[C@H]2O)n2ncnc(N)c12` [Compound 29] showed a pEC50 in data set [1] of 5.96.
For `[2H]c1cc([C@]2(C#N)O[C@H](COC(=O)C(C)C)[C@H]3OC(=O)O[C@H]32)n2ncnc(N)c12` [Compound 53], in data set [1], the negative-log EC50 (pEC50) is 6.18 and the “inhibition” value is “could inhibit the replication”.
`CC(C)C(=O)OC[C@H]1O[C@@](C#N)(c2ccc3c(N)ncnn23)[C@H](OC(=O)C(C)C)[C@@H]1OC(=O)C(C)C` [Compound 27] showed a pEC50 in data set [1] of 5.80.
For `[2H]c1cc([C@]2(C#N)O[C@H](COC(=O)C(C)C)[C@@H](O)[C@H]2O)n2ncnc(N)c12` [Compound 11], in data set [1], the pEC50 is 6.16 and the “inhibition” value is recorded as “could inhibit the replication”.
The compound `[2H]c1cc([C@]2(C#N)O[C@H](COC(=O)C(CC)CC)[C@@H](O)[C@H]2O)n2ncnc(N)c12` [Compound 32] had a pEC50 in data set [1] of 4.36.
In general, bioavailability refers to dose-corrected exposure relative to a reference, in per cent. As a reminder, the AUC(0-inf) is total exposure, with the tail of the curve extrapolated. Usually AUC(0-t) stands for the area under the concentration-time curve up to a stated or last time point. One may read the Cmax as the maximum level reached in the sampled fluid or tissue. `[2H]c1cc([C@]2(C#N)O[C@H](CO)[C@@H](O)[C@H]2O)n2ncnc(N)c12` [Compound 4] showed a pEC50 in data set [1] of 5.63. Besides, the bioavailability in data set [2] (plasma, rat, nucleoside (compound 4) measured, po 10.0 mg/kg vs iv 2.0 mg/kg, read-out: F (oral bioavailability)) was 21.7%. Moreover, in data set [2] (iv 2.0 mg/kg), the AUC(0-inf) is 1.79 µg·h/mL, the AUC(0-t) is 1.72 µg·h/mL and the Cmax amounted to 1.63 µg/mL. In data set [2] (po 10.0 mg/kg), this compound returned an AUC(0-inf) of 1.91 µg·h/mL, an AUC(0-t) of 1.87 µg·h/mL and a Cmax of 0.246 µg/mL.
In data set [1], `N#C[C@@]1(c2ccc3c(N)ncnn23)O[C@H](CO)[C@H]2OC(=O)O[C@H]21` [Compound 25] had a pEC50 of 5.56.
In the case of `CC(C)C(=O)O[C@H]1[C@@H](O)[C@](C#N)(c2ccc3c(N)ncnn23)O[C@@H]1CO` [Compound 20], in data set [1], the pEC50 was 6.16 and the “inhibition” value was “could inhibit the replication”.
